Patent publication US20100316529A1, “Anti-Microbial Systems and Methods” (priority 2001, published 2010)
Values joined by “and” are separate entries in the source; they are usually repeats but may differ in a detail not shown here. Identical values can stand only once.

Columns and labels:
Proteus vulgaris = test: EDTA salt dilution test, MIC/MBC; assay type: cell-based
Pseudomonas sp. = test: EDTA salt dilution test, MIC/MBC; assay type: cell-based
MRSA = test: EDTA salt dilution test, MIC/MBC; assay type: cell-based; details: five entries, Exhibit A2
Kleb. pnemoniae = test: EDTA salt dilution test, MIC/MBC; assay type: cell-based; details: two entries
S. epidermidis = test: EDTA salt dilution test, MIC/MBC; assay type: cell-based; details: two entries
VRE = test: EDTA salt dilution test, MIC/MBC; assay type: cell-based; details: two entries
Proteus mirabilis = test: EDTA salt dilution test, MIC/MBC; assay type: cell-based; details: two entries
Pseudomonas aeruginosa = test: EDTA salt dilution test, MIC/MBC; assay type: cell-based; details: two entries
S. aureus = test: EDTA salt dilution test, MIC/MBC; assay type: cell-based; details: five entries, Exhibit A2
S. simulans = test: EDTA salt dilution test, MIC/MBC; assay type: cell-based
S. capitis = test: EDTA salt dilution test, MIC/MBC; assay type: cell-based; details: two entries, Exhibit A2
S. xylosus = test: EDTA salt dilution test, MIC/MBC; assay type: cell-based
Ent. faecalis = test: EDTA salt dilution test, MIC/MBC; assay type: cell-based
S. lentus = test: EDTA salt dilution test, MIC/MBC; assay type: cell-based
C. glabrata = test: EDTA agar dilution method, yeasts, MIC/MBC; assay type: cell-based; details: two entries, Exhibit C
Protocol: (§1) The bactericidal effects were measured as the Minimum Bactericidal Concentration (MBC), while the inhibitory effects were measured as the Minimum Inhibitory Concentration (MIC). In each case, the concentration was measured as milligrams of the disinfectant salt per milliliter of water (mg/ml).
(§2) Protocol 3: Agar dilutions.
(§3) Prepare nutrient agar plates with increasing concentrations of EDTA, 0, 0.5, 1, 1.5, 2, 4, 6, 8, 10, 15, 20, 25, 30 mg/mL, using the following method. • Pour 300 mL distilled water into a sterile glass bottle. • Add the appropriate amount of EDTA. This is the concentration desired ×300, in grams. • Once the EDTA has fully dissolved, add 8.4 g of Nutrient agar powder (Oxoid). Mix thoroughly. • Do this for each concentration of EDTA required. […] Do this until all the media is used up. Label the plates with the concentration of EDTA they contain. • These plates can then be stored, until they are needed, in a 4° C. fridge. • Use an automatic plate inoculator to inoculate each plate with 21 organisms.

C. tropicalis = test: EDTA agar dilution method, yeasts, MIC/MBC; assay type: cell-based; details: Exhibit C
Protocol: as §1, §2, §3

C. albicans = test: EDTA agar dilution method, yeasts, MIC/MBC; assay type: cell-based; details: three entries, Exhibit C
Protocol: as §1, §2, §3

C. parapsilosis = test: EDTA agar dilution method, yeasts, MIC/MBC; assay type: cell-based; details: Exhibit C
Protocol: as §1, §2, §3

C. guilliermondii = test: EDTA agar dilution method, yeasts, MIC/MBC; assay type: cell-based; details: Exhibit C
Protocol: as §1, §2, §3

Kleb. oxytoca = test: EDTA salt dilution test, MIC/MBC; assay type: cell-based
Ent. faeculm = test: EDTA salt dilution test, MIC/MBC; assay type: cell-based
Acinetobacter baumanii = test: EDTA salt dilution test, MIC/MBC; assay type: cell-based; details: two entries, Exhibit A2
Coryneform strait/amy = test: EDTA salt dilution test, MIC/MBC; assay type: cell-based
Kleb. ornitholytica = test: EDTA salt dilution test, MIC/MBC; assay type: cell-based
Steno. maltophilia = test: EDTA salt dilution test, MIC/MBC; assay type: cell-based
Ent. cloacae = test: EDTA salt dilution test, MIC/MBC; assay type: cell-based; details: three entries
C. lucitaniae = test: EDTA agar dilution method, yeasts, MIC/MBC; assay type: cell-based; details: Exhibit C
From the text: as §2
Do this until all the media is used up.

Cornyeform amycolatum = test: EDTA salt dilution test, MIC/MBC; assay type: cell-based

## O=C([O-])CN(CCN(CC(=O)[O-])CC(=O)[O-])CC(=O)[O-].[Na+].[Na+].[Na+].[Na+] [Tetrasodium EDTA]
Variety of yeasts; Exhibit C
  MIC values compared with the other two EDTA compounds: lower than the MIC values for the other two EDTA compounds
Variety of yeasts; Exhibit C versus Gram negative and Gram positive organisms
  MBC values against yeasts compared with bacteria: comparable to the MBC values for the Gram negative and Gram positive organisms
Proteus vulgaris; Exhibit A1
  MBC, minimum concentration required to kill an entire population: 20000 µg/mL
Proteus vulgaris; Exhibit A2
  MIC, minimum concentration required to inhibit growth: 4000 µg/mL
Pseudomonas sp.; Exhibit A1
  MBC, minimum concentration required to kill an entire population: 30000 µg/mL
Pseudomonas sp.; Exhibit A2
  MIC, minimum concentration required to inhibit growth: 2000 µg/mL
MRSA
  MIC, minimum concentration required to inhibit growth: 1000 µg/mL
Kleb. pnemoniae; Exhibit A1
  MBC, minimum concentration required to kill an entire population: 15000 µg/mL
Kleb. pnemoniae; Exhibit A2
  MIC, minimum concentration required to inhibit growth: 8000 µg/mL and 4000 µg/mL
S. epidermidis; Exhibit A1
  MBC, minimum concentration required to kill an entire population: 1000 µg/mL and 2000 µg/mL
S. epidermidis; Exhibit A2
  MIC, minimum concentration required to inhibit growth: 1000 µg/mL
VRE; Exhibit A1
  MBC, minimum concentration required to kill an entire population: 15000 µg/mL and >30000 µg/mL
VRE; Exhibit A2
  MIC, minimum concentration required to inhibit growth: 1000 µg/mL
Proteus mirabilis; Exhibit A1
  MBC, minimum concentration required to kill an entire population: 20000 µg/mL
Proteus mirabilis; Exhibit A2
  MIC, minimum concentration required to inhibit growth: 1000 µg/mL
Pseudomonas aeruginosa; Exhibit A1
  MBC, minimum concentration required to kill an entire population: 20000 µg/mL
Pseudomonas aeruginosa; Exhibit A2
  MIC, minimum concentration required to inhibit growth: 2000 µg/mL
S. aureus
  MIC, minimum concentration required to inhibit growth: <500 µg/mL and 1000 µg/mL
S. simulans; Exhibit A1
  MBC, minimum concentration required to kill an entire population: 30000 µg/mL
S. simulans; Exhibit A2
  MIC, minimum concentration required to inhibit growth: 1000 µg/mL
S. capitis
  MIC, minimum concentration required to inhibit growth: 1000 µg/mL and <500 µg/mL
S. xylosus; Exhibit A1
  MBC, minimum concentration required to kill an entire population: 25000 µg/mL
S. xylosus; Exhibit A2
  MIC, minimum concentration required to inhibit growth: <500 µg/mL
Ent. faecalis; Exhibit A1
  MBC, minimum concentration required to kill an entire population: 10000 µg/mL
Ent. faecalis; Exhibit A2
  MIC, minimum concentration required to inhibit growth: 1000 µg/mL
S. lentus; Exhibit A1
  MBC, minimum concentration required to kill an entire population: 30000 µg/mL
S. lentus; Exhibit A2
  MIC, minimum concentration required to inhibit growth: 1000 µg/mL
C. glabrata
  MIC's, Minimum Inhibitory Concentration: 500 µg/mL
C. tropicalis
  MBC's, Minimum Bactericidal Concentration: 10000 µg/mL
  MIC's, Minimum Inhibitory Concentration: 500 µg/mL
C. albicans
  MIC's, Minimum Inhibitory Concentration: 500 µg/mL
C. parapsilosis
  MBC's, Minimum Bactericidal Concentration: 8000 µg/mL
  MIC's, Minimum Inhibitory Concentration: 500 µg/mL
C. guilliermondii
  MBC's, Minimum Bactericidal Concentration: 500 µg/mL
  MIC's, Minimum Inhibitory Concentration: 500 µg/mL
Kleb. oxytoca; Exhibit A1
  MBC, minimum concentration required to kill an entire population: 8000 µg/mL
Kleb. oxytoca; Exhibit A2
  MIC, minimum concentration required to inhibit growth: 4000 µg/mL
Ent. faeculm; Ent. faecuim, Exhibit A2
  MIC, minimum concentration required to inhibit growth: <500 µg/mL
Ent. faeculm; Ent. faeculm, Exhibit A1
  MBC, minimum concentration required to kill an entire population: >30000 µg/mL
Acinetobacter baumanii
  MIC, minimum concentration required to inhibit growth: <500 µg/mL and 1000 µg/mL
Coryneform strait/amy; Exhibit A1
  MBC, minimum concentration required to kill an entire population: <500 µg/mL
Coryneform strait/amy; Exhibit A2
  MIC, minimum concentration required to inhibit growth: <500 µg/mL
Kleb. ornitholytica; Exhibit A1
  MBC, minimum concentration required to kill an entire population: 30000 µg/mL
Kleb. ornitholytica; Exhibit A2
  MIC, minimum concentration required to inhibit growth: 4000 µg/mL
Steno. maltophilia; Exhibit A1
  MBC, minimum concentration required to kill an entire population: 4000 µg/mL
Steno. maltophilia; Exhibit A2
  MIC, minimum concentration required to inhibit growth: 1000 µg/mL
Ent. cloacae; Exhibit A1
  MBC, minimum concentration required to kill an entire population: 20000 µg/mL
Ent. cloacae; Exhibit A2
  MIC, minimum concentration required to inhibit growth: 8000 µg/mL and 10000 µg/mL
C. lucitaniae
  MBC's, Minimum Bactericidal Concentration: 6000 µg/mL
  MIC's, Minimum Inhibitory Concentration: 500 µg/mL
Cornyeform amycolatum; Exhibit A1
  MBC, minimum concentration required to kill an entire population: <500 µg/mL
Cornyeform amycolatum; Exhibit A2
  MIC, minimum concentration required to inhibit growth: <500 µg/mL
